Measured values reported in patent US20250136586A1, “Substituted 7-(Pyrimidin-4-yl)Quinolin-4(1H)-One Compounds as Cyclin Dependent Kinase Inhibitors” (BeiGene, Ltd., priority 2022, published 2025).

Columns and labels:
[1] = target: CDK4/Cyclin D1 (Homo sapiens (Human), UniProt P11802); experiment: TR-FRET kinase inhibition assay, CDK4/Cyclin D1; type: biochemical; settings: 1 mM ATP, 0.15 μM Rb (Ser780)-biotin substrate, read-out: CDK4D1 IC50
Method in brief: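 Kinase was preincubated with compound for 60 min at room temperature, then reacted with ATP and Rb (Ser780)-biotin substrate for 120 min. IC50 came from a four-parameter logistic fit.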

[2] = target: CDK6/Cyclin D3 (Homo sapiens (Human), UniProt Q00534); experiment: TR-FRET kinase inhibition assay, CDK6/Cyclin D3; type: biochemical; settings: 1 mM ATP, 0.15 μM Rb (Ser780)-biotin substrate, read-out: CDK6D3 IC50
Sequence of CDK6/Cyclin D3 (Q00534 whole entry): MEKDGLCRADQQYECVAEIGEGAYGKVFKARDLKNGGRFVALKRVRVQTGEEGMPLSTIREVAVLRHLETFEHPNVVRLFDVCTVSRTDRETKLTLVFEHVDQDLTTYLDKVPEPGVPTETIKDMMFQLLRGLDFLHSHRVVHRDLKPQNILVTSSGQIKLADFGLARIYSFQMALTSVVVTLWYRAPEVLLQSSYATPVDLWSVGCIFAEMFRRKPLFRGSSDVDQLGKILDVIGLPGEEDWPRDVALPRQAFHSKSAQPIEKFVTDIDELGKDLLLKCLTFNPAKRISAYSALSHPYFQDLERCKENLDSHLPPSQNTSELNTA
Sequence of CDK6/Cyclin D3 (P30281 whole entry partner): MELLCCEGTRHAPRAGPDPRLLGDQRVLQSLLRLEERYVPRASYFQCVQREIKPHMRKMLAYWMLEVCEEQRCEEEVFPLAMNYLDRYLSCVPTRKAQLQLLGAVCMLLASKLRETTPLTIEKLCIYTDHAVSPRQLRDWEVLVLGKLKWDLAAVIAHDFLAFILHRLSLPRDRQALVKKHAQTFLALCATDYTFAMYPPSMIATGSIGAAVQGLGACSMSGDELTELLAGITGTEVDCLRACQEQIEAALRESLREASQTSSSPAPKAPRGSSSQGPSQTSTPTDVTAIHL
Method in brief: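 Kinase preincubated 60 min at room temperature with 0–10 μM compound; reaction started with 1 mM ATP and 0.15 μM Rb (Ser780)-biotin, run 120 min at room temperature in HEPES pH 7.0, 50 mM MgCl2. pRb detected by TR-FRET (665/620 nm ratio); IC50 from four-parameter logistic fit.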

Sequence of CDK4/Cyclin D1 (P11802 whole entry): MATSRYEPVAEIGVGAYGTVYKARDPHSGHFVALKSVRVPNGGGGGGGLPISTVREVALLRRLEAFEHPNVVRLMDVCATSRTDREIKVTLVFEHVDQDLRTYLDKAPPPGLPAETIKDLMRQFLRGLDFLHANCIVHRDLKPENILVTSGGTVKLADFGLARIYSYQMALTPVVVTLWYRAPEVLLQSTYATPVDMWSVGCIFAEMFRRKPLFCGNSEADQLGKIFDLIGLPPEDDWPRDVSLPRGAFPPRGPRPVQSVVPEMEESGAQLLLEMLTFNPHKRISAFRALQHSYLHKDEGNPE
Sequence of CDK4/Cyclin D1 (P24385 whole entry partner): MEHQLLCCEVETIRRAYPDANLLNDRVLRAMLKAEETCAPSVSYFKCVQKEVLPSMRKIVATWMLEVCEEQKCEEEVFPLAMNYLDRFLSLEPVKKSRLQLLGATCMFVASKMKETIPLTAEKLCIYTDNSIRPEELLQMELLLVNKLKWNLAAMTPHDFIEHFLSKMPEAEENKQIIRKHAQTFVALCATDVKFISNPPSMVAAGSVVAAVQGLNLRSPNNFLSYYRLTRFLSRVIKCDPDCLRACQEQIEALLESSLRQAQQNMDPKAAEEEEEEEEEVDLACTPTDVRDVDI

| SMILES | IC50 [1] [nM] | IC50 [2] [nM] |
| --- | --- | --- |
| CC(C)n1c(CN2CCC(C)(C)C2)cc(=O)c2ccc(-c3nc(N[C@@H]4CCOC[C@H]4O)ncc3F)cc21 [Example 42, 2-((3,3-dimethylpyrrolidin-1-yl)methyl)-7-(5-fluoro-2-(((3S,4R)-3-hydroxytetrahydro-2H-pyran-4-yl)amino)pyrimidin-4-yl)-1-isopropylquinolin-4(1H)-one] | 15 | 645 |
| Cc1c(CN[C@H]2C[C@H](F)C2)n(C(C)C)c2cc(-c3nc(N[C@@H]4CCOC[C@H]4O)ncc3F)ccc2c1=O [Example 111, 7-(5-fluoro-2-(((3S,4R)-3-hydroxytetrahydro-2H-pyran-4-yl)amino)pyrimidin-4-yl)-2-((((1r,3R)-3-fluorocyclobutyl)amino)methyl)-1-isopropyl-3-methylquinolin-4(1H)-one] | 16 | 352 |
| CC(C)n1ccc(=O)c2ccc(-c3nc(N[C@@H]4CCOC[C@H]4O)ncc3F)cc21 [Example 3, 7-(5-fluoro-2-(((3S,4R)-3-hydroxytetrahydro-2H-pyran-4-yl)amino)pyrimidin-4-yl)-1-isopropylquinolin-4(1H)-one] | 78 | 1250 |
| CNC(=O)c1cc(=O)c2c(Cl)cc(-c3nc(N[C@@H]4CCOC[C@H]4O)ncc3F)cc2n1C(C)C [Example 36, 5-chloro-7-(5-fluoro-2-(((3S,4R)-3-hydroxytetrahydro-2H-pyran-4-yl)amino)pyrimidin-4-yl)-1-isopropyl-N-methyl-4-oxo-1,4-dihydroquinoline-2-carboxamide] | 57 | 553 |
| Cc1c(CN[C@@H]2CCOC2)n(C(C)C)c2cc(-c3nc(N[C@@H]4CCOC[C@H]4O)ncc3F)ccc2c1=O [Example 112, 7-(5-fluoro-2-(((3S,4R)-3-hydroxytetrahydro-2H-pyran-4-yl)amino)pyrimidin-4-yl)-1-isopropyl-3-methyl-2-((((R)-tetrahydrofuran-3-yl)amino)methyl)quinolin-4(1H)-one] | 15 | 615 |
| CC(C)n1c(CN(C)C)cc(=O)c2ccc(-c3nc(N[C@@H]4CCOC[C@H]4O)ncc3F)cc21 [Example 20, 2-((dimethylamino)methyl)-7-(5-fluoro-2-(((3S,4R)-3-hydroxytetrahydro-2H-pyran-4-yl)amino)pyrimidin-4-yl)-1-isopropylquinolin-4(1H)-one] | 15 | 510 |
| Cc1c(CN2CCC[C@@H](O)C2)n(C(C)C)c2cc(-c3nc(N[C@@H]4CCOC[C@H]4O)ncc3F)ccc2c1=O [Example 122, 7-(5-fluoro-2-(((3S,4R)-3-hydroxytetrahydro-2H-pyran-4-yl)amino)pyrimidin-4-yl)-2-(((R)-3-hydroxypiperidin-1-yl)methyl)-1-isopropyl-3-methylquinolin-4(1H)-one] | 1.6 | 68.8 |
| CC(C)n1c(CN2C[C@@H](O)[C@H](F)C2)cc(=O)c2ccc(-c3nc(N[C@@H]4CCOC[C@H]4O)ncc3F)cc21 [Example 46, 7-(5-fluoro-2-(((3S,4R)-3-hydroxytetrahydro-2H-pyran-4-yl)amino)pyrimidin-4-yl)-2-(((3R,4R)-3-fluoro-4-hydroxypyrrolidin-1-yl)methyl)-1-isopropylquinolin-4(1H)-one] | 12 | 480 |
| CC(C)n1c(CN2C3CCC2COC3)cc(=O)c2ccc(-c3nc(N[C@@H]4CCOC[C@H]4O)ncc3F)cc21 [Example 29, 2-((3-oxa-8-azabicyclo[3.2.1]octan-8-yl)methyl)-7-(5-fluoro-2-(((3S,4R)-3-hydroxytetrahydro-2H-pyran-4-yl)amino)pyrimidin-4-yl)-1-isopropylquinolin-4(1H)-one] | 19 | 361 |
| CC(C)n1c(CN2C[C@H]3C[C@@H]2CO3)cc(=O)c2ccc(-c3nc(N[C@@H]4CCOC[C@H]4O)ncc3F)cc21 [Example 33, 2-(((1R,4R)-2-oxa-5-azabicyclo[2.2.1]heptan-5-yl)methyl)-7-(5-fluoro-2-(((3S,4R)-3-hydroxytetrahydro-2H-pyran-4-yl)amino)pyrimidin-4-yl)-1-isopropylquinolin-4(1H)-one] | 12 | 324 |
| CC(C)n1c(CN2[C@H](C)COC[C@H]2C)cc(=O)c2ccc(-c3nc(N[C@@H]4CCOC[C@H]4O)ncc3F)cc21 [Example 106, 2-(((3R,5R)-3,5-dimethylmorpholino)methyl)-7-(5-fluoro-2-(((3S,4R)-3-hydroxytetrahydro-2H-pyran-4-yl)amino)pyrimidin-4-yl)-1-isopropylquinolin-4(1H)-one] | 4.8 | 298 |
| CC(C)n1c(CN[C@H]2CCCOC2)cc(=O)c2ccc(-c3nc(N[C@@H]4CCOC[C@H]4O)ncc3F)cc21 [Example 60, 7-(5-fluoro-2-(((3S,4R)-3-hydroxytetrahydro-2H-pyran-4-yl)amino)pyrimidin-4-yl)-1-isopropyl-2-((((S)-tetrahydro-2H-pyran-3-yl)amino)methyl)quinolin-4(1H)-one] | 22 | 638 |
| CC(C)n1c(CN2CC[C@@H](F)C2)cc(=O)c2ccc(-c3nc(N[C@@H]4CCOC[C@H]4O)ncc3F)cc21 [Example 49, 7-(5-fluoro-2-(((3S,4R)-3-hydroxytetrahydro-2H-pyran-4-yl)amino)pyrimidin-4-yl)-2-(((R)-3-fluoropyrrolidin-1-yl)methyl)-1-isopropylquinolin-4(1H)-one] | 8.3 | 299 |
| CC(C)n1c(CN2CCC(F)(F)CC2)cc(=O)c2ccc(-c3nc(N[C@@H]4CCOC[C@H]4O)ncc3F)cc21 [Example 54, 2-((4,4-difluoropiperidin-1-yl)methyl)-7-(5-fluoro-2-(((3S,4R)-3-hydroxytetrahydro-2H-pyran-4-yl)<amino)pyrimidin-4-yl)-1-isopropylquinolin-4(1H)-one] | 13 | 260 |
| CC(C)n1c(CN2CCC(C)(C)CC2)cc(=O)c2ccc(-c3nc(N[C@@H]4CCOC[C@H]4O)ncc3F)cc21 [Example 97, 2-((4,4-dimethylpiperidin-1-yl)methyl)-7-(5-fluoro-2-(((3S,4R)-3-hydroxytetrahydro-2H-pyran-4-yl)amino)pyrimidin-4-yl)-1-isopropylquinolin-4(1H)-one] | 64 | 2050 |
| Cc1c(CNC(C)C)n(C(C)C)c2cc(-c3nc(N[C@@H]4CCOC[C@H]4O)ncc3F)ccc2c1=O [Example 110, 7-(5-fluoro-2-(((3S,4R)-3-hydroxytetrahydro-2H-pyran-4-yl)amino)pyrimidin-4-yl)-1-isopropyl-2-((isopropylamino)methyl)-3-methylquinolin-4(1H)-one] | 9.3 | 567 |
| CNC(=O)c1c(C)c(=O)c2ccc(-c3nc(N[C@@H]4CCOC[C@H]4O)ncc3F)cc2n1C(C)C [Example 24, 7-(5-fluoro-2-(((3S,4R)-3-hydroxytetrahydro-2H-pyran-4-yl)amino)pyrimidin-4-yl)-1-isopropyl-N,3-dimethyl-4-oxo-1,4-dihydroquinoline-2-carboxamide] | 24 | 432 |
| CC(C)n1c(C(=O)N2CCOCC2)cc(=O)c2ccc(-c3nc(N[C@@H]4CCOC[C@H]4O)ncc3Cl)cc21 [Example 13, 7-(5-chloro-2-(((3S,4R)-3-hydroxytetrahydro-2H-pyran-4-yl)amino)pyrimidin-4-yl)-1-isopropyl-2-(morpholine-4-carbonyl)quinolin-4(1H)-one] | 93 | 539 |
| CNC(=O)c1c(Cl)c(=O)c2ccc(-c3nc(N[C@@H]4CCOC[C@H]4O)ncc3F)cc2n1C(C)C [Example 23, 3-chloro-7-(5-fluoro-2-(((3S,4R)-3-hydroxytetrahydro-2H-pyran-4-yl)amino)pyrimidin-4-yl)-1-isopropyl-N-methyl-4-oxo-1,4-dihydroquinoline-2-carboxamide] | 53 | 445 |
| CC(C)n1c(CNc2ccccc2)cc(=O)c2ccc(-c3nc(N[C@@H]4CCOC[C@H]4O)ncc3F)cc21 [Example 94, 7-(5-fluoro-2-(((3S,4R)-3-hydroxytetrahydro-2H-pyran-4-yl)amino)pyrimidin-4-yl)-1-isopropyl-2-((phenylamino)methyl)quinolin-4(1H)-one] | 11 | 165 |
| CC(C)n1c(C(=O)NCC(C)(C)O)cc(=O)c2ccc(-c3nc(N[C@@H]4CCOC[C@H]4O)ncc3Cl)cc21 [Example 22, 7-(5-chloro-2-(((3S,4R)-3-hydroxytetrahydro-2H-pyran-4-yl)amino)pyrimidin-4-yl)-N-(2-hydroxy-2-methylpropyl)-1-isopropyl-4-oxo-1,4-dihydroquinoline-2-carboxamide] | 49 | 931 |
| CC(C)n1c(CN2CCC(F)CC2)cc(=O)c2ccc(-c3nc(N[C@@H]4CCOC[C@H]4O)ncc3F)cc21 [Example 99, 7-(5-fluoro-2-(((3S,4R)-3-hydroxytetrahydro-2H-pyran-4-yl)amino)pyrimidin-4-yl)-2-((4-fluoropiperidin-1-yl)methyl)-1-isopropylquinolin-4(1H)-one] | 17 | 561 |
| Cc1c(CN2CCOCC23CC3)n(C(C)C)c2cc(-c3nc(N[C@@H]4CCOC[C@H]4O)ncc3F)ccc2c1=O [Example 117, 2-((7-oxa-4-azaspiro[2.5]octan-4-yl)methyl)-7-(5-fluoro-2-(((3S,4R)-3-hydroxytetrahydro-2H-pyran-4-yl)amino)pyrimidin-4-yl)-1-isopropyl-3-methylquinolin-4(1H)-one] | 1.9 | 96.9 |
| Cc1c(C2CC2)c(=O)c2ccc(-c3nc(N[C@@H]4CCOC[C@H]4O)ncc3F)cc2n1C(C)C [Example 40, 3-cyclopropyl-7-(5-fluoro-2-(((3S,4R)-3-hydroxytetrahydro-2H-pyran-4-yl)amino)pyrimidin-4-yl)-1-isopropyl-2-methylquinolin-4(1H)-one] | 8.8 | 150 |
